Converted amounts (≈) assume the structure as drawn. Read-outs that look alike come from different tables or passages of the source.
Experiments:
E. coli AG100 [1] = test: Membrane potential assay (BacLight, DiOC2(3)); settings: positive control 156 µM (half MIC)
E. coli AG100tet [2] = test: EtBr accumulation by real-time fluorometry; settings: AG100tet
[3] = tested on: E. coli AG100A (AcrAB pump-deficient); test: MIC, broth microdilution; assay type: cell-based, Escherichia coli; settings: Escherichia coli
E. coli AG100A [4] = test: microbe, parasite or virus in culture; assay type: cell-based, Escherichia coli; settings: Escherichia coli, AG100A, read-out: MIC without efflux inhibitor
Procedure: The minimum inhibitory concentrations (MICs) were determined using the broth microdilution method according to the CLSI guidelines ([Clinical and Laboratory Standards Institute, 2014]). […] Two-fold serial dilutions of the compounds were made to achieve the following concentrations: 320 µM–40 µM. The MICs were determined as the lowest concentration at which no visible growth was observed after 18 h of incubation at 37 °C. The assays were performed in triplicate and the MIC value was given as result of at least two concordant values.

[5] = tested on: E. coli K-12 AG100 (wild-type); test: MIC, broth microdilution; assay type: cell-based; settings: Escherichia coli
E. coli AG100 [6] = test: EtBr accumulation by real-time fluorometry
E. coli AG100tet [7] = test: microbe, parasite or virus in culture; assay type: cell-based, Escherichia coli; settings: Escherichia coli, AG100TET, read-out: MIC without efflux inhibitor, AG100tet; inhibitor 0 μM
Procedure: (§1) The assays were performed in triplicate and the MIC value was given as result of at least two concordant values.

E. coli AG100 [8] = test: Checkerboard synergy assay (MIC of antibiotics/EtBr with efflux inhibitor); assay type: cell-based, Escherichia coli; settings: Escherichia coli
Procedure: as §1

E. coli AG100A [9] = settings: AG100A
[10] = tested on: E. coli AG100tet (AcrAB overexpressing); test: MIC, broth microdilution; assay type: cell-based, Escherichia coli; settings: Escherichia coli

N#CC(C#N)=NNc1cccc(Cl)c1 [CCCP, carbonyl cyanide-m-chlorophenylhydrazone]
percentage of depolarized cells (membrane potential collapse) (E. coli AG100 [1]): over 95%

CC[n+]1c(-c2ccccc2)c2cc(N)ccc2c2ccc(N)cc21 [EtBr, ethidium bromide]
equilibrium concentration (influx equals efflux) (E. coli AG100tet [2]): 2 µg/mL
MIC [3]: 3.12 µg/mL
MIC (E. coli AG100A [4]): 3.12 µg/mL
MIC [5]: 200 µg/mL
equilibrium concentration (influx equals efflux) (E. coli AG100 [6]; AG100): 1 µg/mL
EtBr fluorescence (E. coli AG100 [6]; EtBr 0.5 µg/ml, cycle 1): 3.237
EtBr fluorescence (E. coli AG100 [6]; EtBr 0.5 µg/ml, cycle 7): 3.883
EtBr fluorescence (E. coli AG100 [6]; EtBr 0.5 µg/ml, cycle 8): 4.039
EtBr fluorescence (E. coli AG100 [6]; EtBr 0.5 µg/ml, cycle 9): 4.222
EtBr fluorescence (E. coli AG100 [6]; EtBr 0.5 µg/ml, cycle 10): 4.226
EtBr fluorescence (E. coli AG100 [6]; EtBr 0.5 µg/ml, cycle 11): 4.3568
EtBr fluorescence (E. coli AG100 [6]; EtBr 0.5 µg/ml, cycle 12): 4.419
EtBr fluorescence (E. coli AG100 [6]; EtBr 0.5 µg/ml, cycle 13): 4.6831
EtBr fluorescence (E. coli AG100 [6]; EtBr 0.5 µg/ml, cycle 14): 4.514
EtBr fluorescence (E. coli AG100 [6]; EtBr 0.5 µg/ml, cycle 15): 4.795
EtBr fluorescence (E. coli AG100 [6]; EtBr 0.5 µg/ml, cycle 16): 4.926
EtBr fluorescence (E. coli AG100 [6]; EtBr 0.5 µg/ml, cycle 17): 4.878
EtBr fluorescence (E. coli AG100 [6]; EtBr 0.5 µg/ml, cycle 18): 4.912
EtBr fluorescence (E. coli AG100 [6]; EtBr 0.5 µg/ml, cycle 19): 5.122
EtBr fluorescence (E. coli AG100 [6]; EtBr 0.5 µg/ml, cycle 20): 5.073
EtBr fluorescence (E. coli AG100 [6]; EtBr 0.5 µg/ml, cycle 21): 5.194
EtBr fluorescence (E. coli AG100 [6]; EtBr 0.5 µg/ml, cycle 22): 5.233
EtBr fluorescence (E. coli AG100 [6]; EtBr 0.5 µg/ml, cycle 23): 5.309
EtBr fluorescence (E. coli AG100 [6]; EtBr 0.5 µg/ml, cycle 24): 5.461
EtBr fluorescence (E. coli AG100 [6]; EtBr 0.5 µg/ml, cycle 25): 5.593
EtBr fluorescence (E. coli AG100 [6]; EtBr 0.5 µg/ml, cycle 26): 5.584
EtBr fluorescence (E. coli AG100 [6]; EtBr 0.5 µg/ml, cycle 27): 5.69
EtBr fluorescence (E. coli AG100 [6]; EtBr 0.5 µg/ml, cycle 28): 5.64
EtBr fluorescence (E. coli AG100 [6]; EtBr 0.5 µg/ml, cycle 29): 5.6965
EtBr fluorescence (E. coli AG100 [6]; EtBr 0.5 µg/ml, cycle 30): 5.739
EtBr fluorescence (E. coli AG100 [6]; EtBr 1 µg/ml, cycle 1): 4.697
EtBr fluorescence (E. coli AG100 [6]; EtBr 1 µg/ml, cycle 2): 4.852
EtBr fluorescence (E. coli AG100 [6]; EtBr 1 µg/ml, cycle 3): 5.005
EtBr fluorescence (E. coli AG100 [6]; EtBr 1 µg/ml, cycle 4): 5.143
EtBr fluorescence (E. coli AG100 [6]; EtBr 1 µg/ml, cycle 5): 5.505
EtBr fluorescence (E. coli AG100 [6]; EtBr 1 µg/ml, cycle 6): 5.767
EtBr fluorescence (E. coli AG100 [6]; EtBr 1 µg/ml, cycle 7): 5.841
EtBr fluorescence (E. coli AG100 [6]; EtBr 1 µg/ml, cycle 8): 6.0562
EtBr fluorescence (E. coli AG100 [6]; EtBr 1 µg/ml, cycle 9): 6.088
EtBr fluorescence (E. coli AG100 [6]; EtBr 1 µg/ml, cycle 10): 6.339
EtBr fluorescence (E. coli AG100 [6]; EtBr 1 µg/ml, cycle 11): 6.446
EtBr fluorescence (E. coli AG100 [6]; EtBr 1 µg/ml, cycle 12): 6.666
EtBr fluorescence (E. coli AG100 [6]; EtBr 1 µg/ml, cycle 13): 6.748
EtBr fluorescence (E. coli AG100 [6]; EtBr 1 µg/ml, cycle 14): 6.978
EtBr fluorescence (E. coli AG100 [6]; EtBr 1 µg/ml, cycle 15): 7.028
EtBr fluorescence (E. coli AG100 [6]; EtBr 1 µg/ml, cycle 16): 7.227
EtBr fluorescence (E. coli AG100 [6]; EtBr 1 µg/ml, cycle 17): 7.381
EtBr fluorescence (E. coli AG100 [6]; EtBr 1 µg/ml, cycle 18): 7.326
EtBr fluorescence (E. coli AG100 [6]; EtBr 1 µg/ml, cycle 19): 7.434
EtBr fluorescence (E. coli AG100 [6]; EtBr 1 µg/ml, cycle 20): 7.666
EtBr fluorescence (E. coli AG100 [6]; EtBr 1 µg/ml, cycle 21): 7.737
EtBr fluorescence (E. coli AG100 [6]; EtBr 1 µg/ml, cycle 22): 7.695
EtBr fluorescence (E. coli AG100 [6]; EtBr 1 µg/ml, cycle 23): 7.798
EtBr fluorescence (E. coli AG100 [6]; EtBr 1 µg/ml, cycle 24): 7.86
EtBr fluorescence (E. coli AG100 [6]; EtBr 1 µg/ml, cycle 25): 7.955
EtBr fluorescence (E. coli AG100 [6]; EtBr 1 µg/ml, cycle 26): 7.794
EtBr fluorescence (E. coli AG100 [6]; EtBr 1 µg/ml, cycle 27): 7.948
EtBr fluorescence (E. coli AG100 [6]; EtBr 1 µg/ml, cycle 28): 8.04
EtBr fluorescence (E. coli AG100 [6]; EtBr 1 µg/ml, cycle 29): 8.111
EtBr fluorescence (E. coli AG100 [6]; EtBr 1 µg/ml, cycle 30): 8.205
EtBr fluorescence (E. coli AG100 [6]; EtBr 2 µg/ml, cycle 1): 9.029
EtBr fluorescence (E. coli AG100 [6]; EtBr 2 µg/ml, cycle 2): 9.296
EtBr fluorescence (E. coli AG100 [6]; EtBr 2 µg/ml, cycle 3): 9.71
EtBr fluorescence (E. coli AG100 [6]; EtBr 2 µg/ml, cycle 4): 9.991
EtBr fluorescence (E. coli AG100 [6]; EtBr 2 µg/ml, cycle 5): 10.2954
EtBr fluorescence (E. coli AG100 [6]; EtBr 2 µg/ml, cycle 12): 12.653
EtBr fluorescence (E. coli AG100 [6]; EtBr 2 µg/ml, cycle 13): 13.0282
EtBr fluorescence (E. coli AG100 [6]; EtBr 2 µg/ml, cycle 14): 13.3381
EtBr fluorescence (E. coli AG100 [6]; EtBr 2 µg/ml, cycle 15): 13.5191
EtBr fluorescence (E. coli AG100 [6]; EtBr 2 µg/ml, cycle 16): 13.6733
EtBr fluorescence (E. coli AG100 [6]; EtBr 2 µg/ml, cycle 17): 14.0513
EtBr fluorescence (E. coli AG100 [6]; EtBr 2 µg/ml, cycle 18): 14.1241
EtBr fluorescence (E. coli AG100 [6]; EtBr 2 µg/ml, cycle 19): 14.4449
EtBr fluorescence (E. coli AG100 [6]; EtBr 2 µg/ml, cycle 20): 14.643
EtBr fluorescence (E. coli AG100 [6]; EtBr 2 µg/ml, cycle 21): 14.9287
EtBr fluorescence (E. coli AG100 [6]; EtBr 2 µg/ml, cycle 22): 15.1966
EtBr fluorescence (E. coli AG100 [6]; EtBr 2 µg/ml, cycle 23): 15.196
EtBr fluorescence (E. coli AG100 [6]; EtBr 2 µg/ml, cycle 24): 15.3241
EtBr fluorescence (E. coli AG100 [6]; EtBr 2 µg/ml, cycle 25): 15.6489
EtBr fluorescence (E. coli AG100 [6]; EtBr 2 µg/ml, cycle 26): 15.801
EtBr fluorescence (E. coli AG100 [6]; EtBr 2 µg/ml, cycle 27): 15.8722
EtBr fluorescence (E. coli AG100 [6]; EtBr 2 µg/ml, cycle 28): 16.0341
EtBr fluorescence (E. coli AG100 [6]; EtBr 2 µg/ml, cycle 29): 16.3924
EtBr fluorescence (E. coli AG100 [6]; EtBr 2 µg/ml, cycle 30): 16.548
MIC (E. coli AG100tet [7]): 512 µg/mL
MIC (E. coli AG100 [8]; AG100, read-out: MIC without efflux inhibitor): 200 µg/mL
equilibrium concentration (influx equals efflux) (E. coli AG100A [9]): 0.25 µg/mL
MIC [10]: 512 µg/mL

Cc1onc(-c2ccccc2)c1C(=O)N[C@@H]1C(=O)N2[C@@H]1SC(C)(C)[C@@H]2C(=O)O [OXA, oxacillin]
MIC [3]: 2 µg/mL (≈ 4.98 µM)
MIC (E. coli AG100A [4]): 2 µg/mL (≈ 4.98 µM)
MIC ([5]; E. coli AG100 wild-type, read-out: MIC): 512 µg/mL (≈ 1280 µM)
MIC (E. coli AG100tet [7]): > 2050 µg/mL
MIC (E. coli AG100 [8]; AG100, AG100, inhibitor 0 μM, read-out: MIC without efflux inhibitor): 512 µg/mL
MIC [10]: > 2050 µg/mL

CN(C)[C@@H]1C(O)=C(C(N)=O)C(=O)[C@@]2(O)C(O)=C3C(=O)c4c(O)cccc4[C@@](C)(O)[C@H]3C[C@@H]12 [TET, tetracycline]
MIC [3]: 0.5 µg/mL (≈ 1.13 µM)
MIC (E. coli AG100A [4]): 0.5 µg/mL (≈ 1.13 µM)
MIC (E. coli AG100tet [7]): 64 µg/mL (≈ 144 µM)
MIC [10]: 64 µg/mL (≈ 144 µM)
